Measured values published in patent publication US20240158368A1, “Pyrrolidine Main Protease Inhibitors as Antiviral Agents” (AbbVie Inc., priority 2022, published 2024).

How the values were obtained:
in vitro [1] = conditions: human, pH 7.4
in vitro [2] = conditions: PAMPA
in vitro [3] = conditions: rat, pH 7.4
229E Mpro = 229E Mpro (Human coronavirus 229E (HCoV-229E), UniProt P0C6X1); format: biochemical
[4] = system: SARS-CoV-2 (strain USA-WA1/2020); assay: microbe, parasite or virus in culture; format: cell-based; conditions: Severe acute respiratory syndrome coronavirus 2; HeLa-ACE2 cells; read-out: Antiviral CoV-2 EC50
OC43 Mpro = OC43 Mpro (Human coronavirus OC43 (HCoV-OC43), UniProt P0C6X6); format: biochemical
SARS-CoV-2 Mpro = SARS-CoV-2 Mpro (Severe acute respiratory syndrome coronavirus 2 (2019-nCoV) (SARS-CoV-2), UniProt P0DTD1); format: biochemical
MERS Mpro = MERS Mpro (Middle East respiratory syndrome-related coronavirus (isolate United Kingdom/H123990006/2012) (MERS-CoV) (Betacoronavirus England 1), UniProt K9N7C7); assay: biochemical
Chain of MERS Mpro (K9N7C7 3248-3553 limits assumed): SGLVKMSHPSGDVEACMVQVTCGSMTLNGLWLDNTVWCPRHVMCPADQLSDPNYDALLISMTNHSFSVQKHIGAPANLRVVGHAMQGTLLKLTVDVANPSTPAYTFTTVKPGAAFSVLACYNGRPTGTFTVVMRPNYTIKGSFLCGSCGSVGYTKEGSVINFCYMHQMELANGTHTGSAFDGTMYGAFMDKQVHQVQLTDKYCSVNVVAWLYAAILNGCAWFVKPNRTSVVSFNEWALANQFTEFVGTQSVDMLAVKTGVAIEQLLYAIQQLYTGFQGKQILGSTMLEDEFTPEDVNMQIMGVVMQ

Chain of 229E Mpro (P0C6X1 2966-3267 limits assumed): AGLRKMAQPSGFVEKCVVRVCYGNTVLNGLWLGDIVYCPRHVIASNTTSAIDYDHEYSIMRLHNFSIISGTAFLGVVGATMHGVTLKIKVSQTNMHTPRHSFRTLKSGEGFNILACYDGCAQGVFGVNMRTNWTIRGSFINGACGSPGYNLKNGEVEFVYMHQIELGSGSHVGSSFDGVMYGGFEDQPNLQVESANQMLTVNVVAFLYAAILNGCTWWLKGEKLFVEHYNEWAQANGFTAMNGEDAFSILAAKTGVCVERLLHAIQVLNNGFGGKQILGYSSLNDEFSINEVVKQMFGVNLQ
Chain of OC43 Mpro (P0C6X6 3247-3549 limits assumed): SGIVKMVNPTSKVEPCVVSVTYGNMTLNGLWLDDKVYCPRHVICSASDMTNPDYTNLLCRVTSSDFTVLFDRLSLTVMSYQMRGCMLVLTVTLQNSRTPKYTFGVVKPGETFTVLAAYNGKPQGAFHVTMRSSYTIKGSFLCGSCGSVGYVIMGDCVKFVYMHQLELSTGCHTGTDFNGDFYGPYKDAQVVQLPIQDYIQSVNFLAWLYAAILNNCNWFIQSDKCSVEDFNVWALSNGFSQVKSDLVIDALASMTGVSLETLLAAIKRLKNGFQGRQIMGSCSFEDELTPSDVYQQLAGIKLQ

Structure (SMILES) | CLint scaled (in vitro [1]; microsomes) [mL/min/kg] | Papp (in vitro [2]) [×10⁻⁶ cm/s] | CLint scaled (in vitro [3]; microsomes) [mL/min/kg] | EC50 (229E Mpro) [nM] | EC50 [4] [nM] | EC50 (OC43 Mpro) [nM] | EC50 (SARS-CoV-2 Mpro) [nM] | EC50 (MERS Mpro) [nM] | CLint scaled (in vitro [1]) [mL/min/kg] | CLint scaled (in vitro [3]) [mL/min/kg]
N#Cc1cc(C(=O)N2CCOCC2)c(N2CC[C@H](NC(=O)c3cc(=O)[nH]c4c(F)cccc34)C2)c(C(F)(F)F)c1 [Compound 4] | < 25 | 5.55 | < 41.7 |  |  |  |  |  |  | 
N#Cc1cc(C(=O)N2CCOCC2)c(N2CC[C@@H](NC(=O)c3c(F)c(=O)[nH]c4ccccc34)C2)c(C(F)(F)F)c1 [Compound 6] | < 35 | 3.22 | 81.7 | 2.32 | 21.9 | 1.44 | 0.78 | 2.51 |  | 
N#Cc1cc(C(=O)N2CCOCC2)c(N2CC[C@@H](NC(=O)c3cc(=O)[nH]c4c(F)cc(F)cc34)C2)c(C(F)(F)F)c1 [Compound 7] | < 35 | 6.77 | < 58.3 | 2.76 | 25.6 | 4.95 | 0.43 | 0.99 |  | 
Cc1cc(C(=O)N[C@@H]2CCN(c3c(C(=O)N4CCOCC4)cc(C#N)cc3C(F)(F)F)C2)c(F)c(=O)[nH]1 [Compound 10] | < 30 | 0.7 | < 50 | 7.63 | 589 | 12 | 0.54 | 1.5 |  | 
Cc1[nH]c(=O)c(F)c(C(=O)N[C@@H]2CCN(c3c(C(=O)N4CCOCC4)cc(C#N)cc3C(F)(F)F)C2)c1Cl [Compound 11] |  | 0.49 | < 61.7 | 5.31 |  | 10.3 | 0.73 | 1.63 |  | 
Cc1cc(C(=O)N[C@@H]2CCN(c3c(C(=O)N4CCOCC4)cc(C#N)cc3C(F)F)C2)c(F)c(=O)[nH]1 [Compound 12] | < 25 | 0.23 | < 41.7 | 90.4 |  | 23.4 | 1.02 | 2.65 |  | 
N#Cc1cc(C(=O)N2CCCCC2)c(N2CC[C@@H](NC(=O)c3cc(=O)[nH]c4c(F)cccc34)C2)c(C(F)(F)F)c1 [Compound 15] |  | 15.2 |  |  |  |  |  | 3.28 | 76.7 | 220
C[C@@]12COC[C@@H]1CN(C(=O)c1cc(C#N)cc(C(F)(F)F)c1N1CC[C@@H](NC(=O)c3cc(=O)[nH]c4c(F)cccc34)C1)C2 [Compound 16] |  | 7.38 |  |  |  |  |  | 1.46 | 93.3 | 313
N#Cc1cc(C(=O)N2CC3CC(C2)O3)c(N2CC[C@@H](NC(=O)c3cc(=O)[nH]c4c(F)cccc34)C2)c(C(F)(F)F)c1 [Compound 17] |  | 4.6 |  |  |  |  |  | 1.27 | < 28.3 | < 48.3
N#Cc1cc(C(=O)N2C[C@H]3COC[C@H]3C2)c(N2CC[C@@H](NC(=O)c3cc(=O)[nH]c4c(F)cccc34)C2)c(C(F)(F)F)c1 [Compound 18] |  | 7.19 |  |  | 13.6 |  |  | 1.35 | 38.3 | 95
COCCN1CCN(C(=O)c2cc(C#N)cc(C(F)(F)F)c2N2CC[C@@H](NC(=O)c3cc(=O)[nH]c4c(F)cccc34)C2)CC1 [Compound 19] |  | 6.68 |  |  |  |  |  | 1.44 | < 36.7 | 200
N#Cc1cc(C(=O)N2CCCC2)c(N2CC[C@@H](NC(=O)c3cc(=O)[nH]c4c(F)cccc34)C2)c(C(F)(F)F)c1 [Compound 20] |  | 13.8 |  |  |  |  |  | 1.68 | < 36.7 | 142
N#Cc1cc(C(=O)N2CCC(F)(F)C2)c(N2CC[C@@H](NC(=O)c3cc(=O)[nH]c4c(F)cccc34)C2)c(C(F)(F)F)c1 [Compound 21] |  | 8.89 |  |  |  |  |  | 1.3 | 55 | 128
CCS(=O)(=O)N1CCN(C(=O)c2cc(C#N)cc(C(F)(F)F)c2N2CC[C@@H](NC(=O)c3cc(=O)[nH]c4c(F)cccc34)C2)CC1 [Compound 25] |  | 2.06 |  |  |  |  |  | 1.41 |  | 
N#Cc1cc(C(=O)N2CCNC(=O)C2)c(N2CC[C@@H](NC(=O)c3cc(=O)[nH]c4c(F)cccc34)C2)c(C(F)(F)F)c1 [Compound 27] | < 35 | 0.11 | < 58.3 |  | 2800 | 8.72 | 0.63 | 1.36 |  | 
Cc1cc(C(=O)N[C@@H]2CCN(c3c(C(=O)NCC(C)C)cc(C#N)cc3C(F)(F)F)C2)cc(=O)[nH]1 [Compound 29] | < 30 | 3.51 | < 51.7 | 682 |  | 378 | 13.9 | 8.85 |  | 

Structure (SMILES) | CLint scaled (in vitro [1]; microsomes) [mL/min/kg] | Papp (in vitro [2]) [×10⁻⁶ cm/s] | CLint scaled (in vitro [3]; microsomes) [mL/min/kg] | EC50 (229E Mpro) [nM] | EC50 [4] [nM] | EC50 (OC43 Mpro) [nM] | EC50 (SARS-CoV-2 Mpro) [nM] | EC50 (MERS Mpro) [nM] | CLint scaled (in vitro [1]) [mL/min/kg] | CLint scaled (in vitro [3]) [mL/min/kg]
CO[C@H]1CN(c2c(C(=O)N3CCOCC3)cc(C#N)cc2C(F)(F)F)C[C@@H]1NC(=O)c1cc(=O)[nH]c2c(F)cccc12 [Compound 32] | 48.3 | 7.29 | < 70 | 1.78 | 18.6 | 1.17 | 0.45 | 1.06 |  | 
N#Cc1cc(C(=O)N2CCOCC2)c(N2C[C@H](NC(=O)c3cc(=O)[nH]c4c(F)cc(F)cc34)CC2=O)c(C(F)(F)F)c1 [Compound 33] | < 35 | 1.12 | < 56.7 | 38.5 | 174 | 171 | 0.92 | 2.49 |  | 
N#Cc1cc(C(=O)N2CCOCC2)c(N2CC[C@@H](NC(=O)c3cc(=O)[nH]c4c(F)cccc34)C2)c(C2CC2)c1 [Compound 40] | < 28.3 | 5.15 | 220 | 2.47 | 5 | 0.55 | 0.42 | 0.89 |  | 
CN1CCN(C(=O)c2cc(C#N)cc(C3CC3)c2N2CC[C@@H](NC(=O)c3cc(=O)[nH]c4c(F)cccc34)C2)CC1 [Compound 41] | 147 | 0.59 | 280 | 2.16 |  | 0.69 | 0.45 | 0.82 |  | 
O=C(N[C@@H]1CCN(c2c(OC(F)(F)F)cc(Br)cc2C(=O)N2CCOCC2)C1)c1cc(=O)[nH]c2c(F)cccc12 [Compound 42] | 125 | 14.7 | 482 | 3.58 | 8.2 | 1.4 | 0.45 | 1.05 |  | 
O=C(N[C@@H]1CCN(c2c(OC(F)(F)F)cc(Cl)cc2C(=O)N2CCOCC2)C1)c1cc(=O)[nH]c2c(F)cccc12 [Compound 44] | 41.7 | 15.3 | 292 | 3.18 |  | 1.98 | 0.53 | 1.07 |  | 
O=C(N[C@H]1CCN(c2c(C(=O)N3CCOCC3)cc(Br)cc2C(F)(F)F)C1)c1cc(=O)[nH]c2c(F)cccc12 [Compound 47] | 46.7 | 15.7 | 182 |  |  |  |  |  |  | 
O=C(N[C@@H]1CCN(c2c(C(=O)N3CCOCC3)cc(Br)cc2C(F)(F)F)C1)c1c(F)c(=O)[nH]c2ccccc12 [Compound 53] | 217 | 8.9 | 615 | 1.98 |  | 0.71 | 0.6 | 1.86 |  | 
O=C(N[C@@H]1CCN(c2c(C(=O)N3CCCCC3)cc(Br)cc2C(F)(F)F)C1)c1cc(=O)[nH]c2c(F)cccc12 [Compound 64] | 272 | 14.9 | 1070 | 9.61 |  | 2.87 | 0.53 | 1.38 |  | 
O=C(N[C@@H]1CCN(c2c(C(=O)N3CC4COCC4C3)cc(Br)cc2C(F)(F)F)C1)c1cc(=O)[nH]c2c(F)cccc12 (stereo partly shown) [Compound 66] | 297 | 15 | 607 | 5.78 |  | 2.06 | 0.48 | 1.28 |  | 
O=C(N[C@@H]1CCN(c2c(C(=O)N3CCCC3)cc(Br)cc2C(F)(F)F)C1)c1cc(=O)[nH]c2c(F)cccc12 [Compound 68] | 317 | 14.7 | 1120 | 10.4 |  | 3.55 | 0.6 | 1.83 |  | 
O=C(N[C@@H]1CCN(c2c(C(=O)N3CCC(F)(F)C3)cc(Br)cc2C(F)(F)F)C1)c1cc(=O)[nH]c2c(F)cccc12 [Compound 69] | 303 | 14.5 | 1040 | 15.5 |  | 4.92 | 0.67 | 1.76 |  | 
O=C(N[C@@H]1CCN(c2c(C(=O)N3CC(F)(F)C3)cc(Br)cc2C(F)(F)F)C1)c1cc(=O)[nH]c2c(F)cccc12 [Compound 70] | 205 | 13.9 | 845 | 33.7 |  | 11.1 | 1.02 | 1.96 |  | 
COCCN(C)C(=O)c1cc(Br)cc(C(F)(F)F)c1N1CC[C@@H](NC(=O)c2cc(=O)[nH]c3c(F)cccc23)C1 [Compound 72] | 562 | 19.6 | 1280 | 39 |  | 19.2 | 1.11 | 2.83 |  | 
O=C(N[C@@H]1CC(=O)N(c2c(C(=O)N3CCOCC3)cc(Br)cc2C(F)(F)F)C1)c1c(F)c(=O)[nH]c2c(F)c(F)ccc12 [Compound 77] | < 38.3 | 3.46 | < 65 | 124 |  | 28.3 | 1.21 | 1.69 |  | 
